# Target: T1, CBP BRD (Homo sapiens, UniProt Q92793)
# T1 construct: made in house
# Assay: In vitro fluorescence polarization-based competition binding assay
# Conditions: within series 4a-d
# Description: FIG. 1A is a line drawing of the florescence polarization competition assay measuring the binding affinity of compounds 4a-d to the CBP BRD. FIG. 1B provides the IC50 values of compounds 4a-d and MS7972. Results are representative of three independent experiments and the error is SD.
# Expression and purification of the recombinant CBP BRD in poly-his tag form was conducted using the procedure as previously described (Mujtaba, S. et al., Mol Cell 13, 251-63 (2004)). The purified protein was confirmed with mass spectroscopy. Binding assays were performed with CBP BRD (5 μM) and fluorescent probe (10 nM), and increasing concentration of unlabeled competing ligand.
# T1 sequence (Q92793 1085-1192 limits assumed): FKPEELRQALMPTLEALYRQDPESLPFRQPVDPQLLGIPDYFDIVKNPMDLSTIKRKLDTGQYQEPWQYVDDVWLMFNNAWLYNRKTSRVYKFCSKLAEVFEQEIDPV
row,Compound,"binding affinity to CBP BRD, in words"
1,"CC(=O)NCCCCCCn1c2c(c3ccccc31)C(=O)NCC2 [4d, 2,3,4,5-tetrahydro-5-(6′-acetamidohexyl)-1H-pyrido-[4,3-b]indol-1-one]",partial or total loss of the affinity
2,"CC(=O)NCCn1c2c(c3ccccc31)C(=O)NCC2 [4a, 2,3,4,5-tetrahydro-5-(2′-acetamidoethyl)-1H-pyrido-[4,3-b]indol-1-one]",lowest improvement of the series

# — patent publication US10065951B2, “Small molecule transcription modulators of bromodomains” (Icahn School of Medicine at Mount Sinai, priority 2014, dated 2018)
